Measured values: ChEMBL document CHEMBL1201862, “PubChem BioAssay data set” (2004)
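All cell lines were grown in 96-well plates and treated with compound for 48 hours. GI50 is the concentration that inhibits growth by half.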 Calls of active or inactive are those of the source. Cut-off read from the data, not from the text of the source: active = GI50 up to about 1.1 µM and inactive = higher.

Columns and labels:
Assay in all cases: NCI-60 cell line screen, 48 h
[1] = system: OVCAR-4
[2] = system: OVCAR-5
[3] = system: SF-268
[4] = system: UO-31
[5] = system: MCF7
[6] = system: LOX IMVI
[7] = system: SW-620
[8] = system: T47D
[9] = system: HT-29
[10] = system: PC-3
[11] = system: SNB-19
[12] = system: HL-60
[13] = system: SK-MEL-28
[14] = system: HOP-92
[15] = system: NCI-H23
[16] = system: Malme-3M
[17] = system: RXF 393
[18] = system: NCI-H460
[19] = system: EKVX
[20] = system: U-251
[21] = system: IGROV-1
[22] = system: KM12
[23] = system: MOLT-4
[24] = system: CCRF-CEM
[25] = system: 786-0
[26] = system: OVCAR-8
[27] = system: HCT-15
[28] = system: Hs-578T
[29] = system: SNB-75
[30] = system: MDA-MB-435
[31] = system: DU-145
[32] = system: COLO 205
[33] = system: A498
[34] = system: K562
[35] = system: ACHN
[36] = system: A549
[37] = system: NCI/ADR-RES
[38] = system: HCC 2998
[39] = system: M14
[40] = system: MDA-N
[41] = system: NCI-H522
[42] = system: HOP-62
[43] = system: BT-549
[44] = system: SR
[45] = system: MDA-MB-231
[46] = system: UACC-62
[47] = system: SK-MEL-5
[48] = system: UACC-257
[49] = system: SK-OV-3
[50] = system: SN12C
[51] = system: OVCAR-3
[52] = system: NCI-H226
[53] = system: HCT-116
[54] = system: CAKI-1
[55] = system: TK-10
[56] = system: SK-MEL-2
[57] = system: RPMI-8226
[58] = system: SF-295
[59] = system: SF-539

Measured: GI50

CCCCCCCCCCCCCCCCOP(=O)(O)OP(=O)(O)OCC1OC(n2cnc3c(N)ncnc32)C(O)C1O (centres undefined)
> 100 µM: [27]
inactive: [1] > 100 µM | [2] 11.5 µM | [3] 73.8 µM | [4] 60.5 µM | [5] 56 µM | [6] > 100 µM | [7] > 100 µM | [8] > 100 µM | [9] 39.9 µM | [10] 38.2 µM | [11] 34 µM | [12] 66.7 µM | [13] 24.5 µM | [14] 19.1 µM | [15] 87.1 µM | [16] 43.9 µM | [17] 98.4 µM | [18] 36.1 µM | [19] > 100 µM | [20] 46 µM | [21] 66.8 µM | [22] > 100 µM | [23] 23.5 µM | [24] 30.5 µM | [25] 80.5 µM | [26] 39.8 µM | [28] 43.8 µM | [29] 24.4 µM | [30] 56.5 µM | [31] 69.3 µM | [32] > 100 µM | [33] > 100 µM | [34] 46.8 µM | [35] > 100 µM | [36] > 100 µM | [37] 78.9 µM | [38] 52.1 µM | [39] 64.9 µM | [40] 75.9 µM | [41] 19.9 µM | [42] 30.5 µM | [43] 18.7 µM | [44] 31.8 µM | [45] > 100 µM | [46] 58.7 µM | [47] > 100 µM | [48] > 100 µM | [49] 33 µM | [50] 36.3 µM | [51] > 100 µM | [52] 54.6 µM | [53] 45.5 µM | [54] 99.3 µM | [55] > 100 µM | [56] 49.8 µM

CCN(CC)C(=S)SS(=O)(=O)c1ccccc1C(=O)O
inactive: [1] > 100 µM | [2] > 100 µM | [3] 98.2 µM | [4] > 94 µM | [6] > 100 µM | [7] > 100 µM | [57] > 100 µM | [8] > 36 µM | [9] > 100 µM | [10] > 100 µM | [11] > 94.2 µM | [13] > 100 µM | [14] > 100 µM | [15] > 100 µM | [16] > 96.4 µM | [17] > 70.3 µM | [18] > 20 µM | [19] > 100 µM | [20] 99.8 µM | [21] > 100 µM | [22] > 100 µM | [24] 82 µM | [25] > 100 µM | [26] > 100 µM | [28] > 100 µM | [29] > 89.1 µM | [30] > 100 µM | [31] > 100 µM | [32] > 100 µM | [33] > 38 µM | [34] > 100 µM | [35] > 70.8 µM | [36] 10.8 µM | [37] > 100 µM | [38] > 100 µM | [58] > 88.5 µM | [59] > 100 µM | [39] > 96.4 µM | [40] > 100 µM | [41] 2.67 µM | [42] > 100 µM | [43] > 100 µM | [44] 3.6 µM | [45] > 100 µM | [46] 66.4 µM | [47] > 60.7 µM | [48] > 100 µM | [49] > 100 µM | [50] > 94.8 µM | [51] > 100 µM | [52] > 46.7 µM | [53] > 96.6 µM | [54] > 78 µM | [55] > 100 µM | [56] > 100 µM
> 100 µM: [27]
active: [5] 1.03 µM | [23] 0.933 µM
